Experimental data taken from the supplement of paper PMC11061612.

Columns and labels:
Assay in all cases: Bliss excess, mean over the matrix (fraction); higher = more synergy
[1] = system: TUR (Acute Myeloid Leukemia)
Method in brief: (§1)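 Bliss excess equals the observed combination effect minus the expected value EA + EB − EA·EB, where EA and EB are the effects of each agent alone. Combination Emax is the second-highest inhibition within the matrix. Inhibition was scaled from CellTiter-Glo 2.0 luminescence, with 0 set by vehicle wells and 1 by blank wells, after 72 hours of two-drug dosing of cells plated in 1536-well plates.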

[2] = system: PL4 (Pancreatic Carcinoma)
Method in brief: as §1

[3] = system: PA-TU-8988T (Pancreatic Carcinoma)
Method in brief: as §1

[4] = system: MONO-MAC-6 (Acute Myeloid Leukemia)
Method in brief: as §1

[5] = system: SK-N-SH (Neuroblastoma)
Method in brief: as §1

[6] = system: IA-LM (Non-Small Cell Lung Carcinoma)
Method in brief: as §1

[7] = system: BxPC-3 (Pancreatic Carcinoma)
Method in brief: as §1

[8] = system: NCI-H1341 (Small Cell Lung Carcinoma)
Method in brief: as §1

[9] = system: WM35 (Melanoma)
Method in brief: as §1

[10] = system: NCI-H3118 (Head and Neck Carcinoma)
Method in brief: as §1

[11] = system: CPC-N (Small Cell Lung Carcinoma)
Method in brief: as §1

[12] = system: SCC-4 (Oral Cavity Carcinoma)
Method in brief: as §1

[13] = system: SNU-423 (Hepatocellular Carcinoma)
Method in brief: as §1

[14] = system: DBTRG-05MG (Glioblastoma)
Method in brief: as §1

[15] = system: NCI-H596 (Other Solid Carcinomas)
Method in brief: as §1

[16] = system: Raji (Burkitt's Lymphoma)
Method in brief: as §1

[17] = system: AM-38 (Glioblastoma)
Method in brief: as §1

[18] = system: CL-11 (Colorectal Carcinoma)
Method in brief: as §1

[19] = system: P32-ISH (Burkitt's Lymphoma)
Method in brief: as §1

[20] = system: SNU-C2B (Colorectal Carcinoma)
Method in brief: as §1

SMILES	Bliss excess [1]	Bliss excess [2]	Bliss excess [3]	Bliss excess [4]	Bliss excess [5]	Bliss excess [6]	Bliss excess [7]	Bliss excess [8]	Bliss excess [9]	Bliss excess [10]	Bliss excess [11]	Bliss excess [12]	Bliss excess [13]	Bliss excess [14]	Bliss excess [15]	Bliss excess [16]	Bliss excess [17]	Bliss excess [18]	Bliss excess [19]	Bliss excess [20]
COc1nnc2ccc(N3CCC(c4ccc(OCCN5CCN(C)C(=O)[C@H]5C)cc4)CC3)nn12 [AZD5153] + C[C@@H]1COCCN1C2=NC(=NC(=C2)C3(CC3)[S@](=N)(=O)C)C4=C5C=CNC5=NC=C4 [AZD6738] (first compound max 1 µM, 7x7, partner max 10 µM)	-0.0046	-0.0425	0.0531	-0.031	-0.0611	-0.0353	-0.0013	0.0243	0.0621	-0.0879	-0.0692	-0.0283	-0.0023	0.0213	-0.0028	-0.0198	0.0447	-0.0383	-0.0039	0.0233
COc1nnc2ccc(N3CCC(c4ccc(OCCN5CCN(C)C(=O)[C@H]5C)cc4)CC3)nn12 [AZD5153] + Cc1c2c(nn1C)CSCc1cc(n(C)n1)CSc1cc(c3ccccc3c1)OCCCc1c(C(=O)O)n(C)c3c-2c(Cl)ccc13 [AZD5991] (first compound max 1 µM, 7x7, partner max 1 µM)	0.0507	-0.0242	0.005	0.0451	-0.0334	-0.0797	-0.015	0.0366	0.0634	-0.0602	0.0163	-0.0208	-0.0227	-0.0296	-0.0532	-0.0119	-0.0083	-0.0499	-0.0108	-0.0319
COc1nnc2ccc(N3CCC(c4ccc(OCCN5CCN(C)C(=O)[C@H]5C)cc4)CC3)nn12 [AZD5153] + Cn1cnc2c(F)c(Nc3ccc(Br)cc3Cl)c(C(=O)NOCCO)cc21 [Selumetinib] (first compound max 1 µM, 7x7, partner max 10 µM)	-0.0567	-0.0089	0.0423	-0.008	-0.0142	0.0168	-0.0864	-0.0282	0.0702	-0.0164	-0.0222	-0.0332	0.0059	-0.014	-0.0344	-0.0445	-0.0064	0.0425	-0.0417	0.019
Cc1c2c(nn1C)CSCc1cc(n(C)n1)CSc1cc(c3ccccc3c1)OCCCc1c(C(=O)O)n(C)c3c-2c(Cl)ccc13 [AZD5991] + C1CN(CCC1(C(=O)N[C@@H](CCO)C2=CC=C(C=C2)Cl)N)C3=NC=NC4=C3C=CN4 [Capivasertib] (first compound max 1 µM, 7x7, partner max 3 µM)	0.0937	0.0199	-0.01	0.0378	0.011	-0.021	-0.0005	0.0609	-0.0183	0.0263	0.0177	0.0358	-0.0822	-0.0215	-0.0035	0.0312	0.0026	-0.0234	0.0276	-0.0161
Cc1c2c(nn1C)CSCc1cc(n(C)n1)CSc1cc(c3ccccc3c1)OCCCc1c(C(=O)O)n(C)c3c-2c(Cl)ccc13 [AZD5991] + C=CCn1c(=O)c2cnc(Nc3ccc(N4CCN(C)CC4)cc3)nc2n1-c1cccc(C(C)(C)O)n1 [AZD1775] (first compound max 1 µM, partner max 1 µM)	0.0189	-0.0928	-0.0321	-0.0256	-0.0163	-0.0011	-0.0125	0.0185	0.027	-0.0361	-0.0453	0.0917	-0.0976	0.005	-0.0682	-0.013	-0.0015	-0.0112	-0.0228	0.0194
Cc1c2c(nn1C)CSCc1cc(n(C)n1)CSc1cc(c3ccccc3c1)OCCCc1c(C(=O)O)n(C)c3c-2c(Cl)ccc13 [AZD5991] + CC1(C)CCC(CN2CCN(c3ccc(C(=O)NS(=O)(=O)c4ccc(NCC5CCOCC5)c([N+](=O)[O-])c4)c(Oc4cnc5[nH]ccc5c4)c3)CC2)=C(c2ccc(Cl)cc2)C1 [Venetoclax] (first compound max 1 µM, 7x7, partner max 1 µM)	0.138	-0.0611	-0.0031	0.136	0.151	-0.007	0.0411	0.132	0.0181	-0.0163	-0.017	-0.0365	-0.0736	-0.0233	-0.0102	0.0287	-0.0091	-0.0254	0.0054	-0.0289
Cc1c2c(nn1C)CSCc1cc(n(C)n1)CSc1cc(c3ccccc3c1)OCCCc1c(C(=O)O)n(C)c3c-2c(Cl)ccc13 [AZD5991] + CCN(CCO)CCCOc1ccc2c(Nc3cc(CC(=O)Nc4cccc(F)c4)[nH]n3)ncnc2c1 [AZD2811] (first compound max 1 µM, 7x7, partner max 1 µM)	0.121	0.0467	0.0689	0.0258	-0.068	0.0059	0.0412	0.0493	0.0333	0.0796	0.0311	0.0408	-0.0322	0.019	-0.102	0.0766	0.0138	-0.021	-0.0194	0.0057
Cc1c2c(nn1C)CSCc1cc(n(C)n1)CSc1cc(c3ccccc3c1)OCCCc1c(C(=O)O)n(C)c3c-2c(Cl)ccc13 [AZD5991] + CN(C)CCCOc1ccc(-c2ccc3ncc4c(c3c2)n(C2CCOCC2)c(=O)n4C)cn1 [AZD0156] (first compound max 1 µM, 7x7, partner max 1 µM)	0.0377	0.056	0.0146	-0.0433	0.0204	-0.0333	0.0229	0.0072	0.0155	0.0092	-0.0129	-0.0232	-0.0259	0.0252	-0.0088	-0.0213	0.0291	-0.0081	0.0083	0.0051
Cc1c2c(nn1C)CSCc1cc(n(C)n1)CSc1cc(c3ccccc3c1)OCCCc1c(C(=O)O)n(C)c3c-2c(Cl)ccc13 [AZD5991] + C[C@@H]1COCCN1C2=NC(=NC(=C2)C3(CC3)[S@](=N)(=O)C)C4=C5C=CNC5=NC=C4 [AZD6738] (first compound max 1 µM, 7x7, partner max 10 µM)	0.096	0.0606	0.0151	-0.02	-0.0225	0.0255	-0.01	0.0751	0.0604	0.0942	-0.024	-0.0003	0.0026	0.0578	-0.0172	0.055	0.0312	0.0322	0.0231	-0.0199
Cc1c2c(nn1C)CSCc1cc(n(C)n1)CSc1cc(c3ccccc3c1)OCCCc1c(C(=O)O)n(C)c3c-2c(Cl)ccc13 [AZD5991] + Cc1cc2ncnn2cc1Nc1ncc2c(n1)n(C1CCOCC1)c(=O)n2C [AZD7648] (first compound max 1 µM, 7x7, partner max 10 µM)	-0.0488	-0.0395	-0.051	0.016	-0.0211	-0.0226	-0.0007	0.0192	-0.0073	-0.0707	-0.0109	-0.0269	-0.0768	-0.0436	0.0056	0.0794	-0.0347	-0.0533	0.0465	-0.012
Cc1c2c(nn1C)CSCc1cc(n(C)n1)CSc1cc(c3ccccc3c1)OCCCc1c(C(=O)O)n(C)c3c-2c(Cl)ccc13 [AZD5991] + Cn1cnc2c(F)c(Nc3ccc(Br)cc3Cl)c(C(=O)NOCCO)cc21 [Selumetinib] (first compound max 1 µM, 7x7, partner max 3 µM)	0.0408	-0.0325	0.0457	0.0117	-0.0515	-0.0299	0.0457	0.0693	0.0794	0.0324	0.0185	0.0478	-0.0599	0.0307	-0.0098	0.0082	0.0517	-0.0222	0.0025	0.0671
C[C@@H]1COCCN1c1cc(C2([S@](C)(=N)=O)CC2)nc(-c2ccnc3[nH]ccc23)n1 [AZD6738] + O=C(c1cc(Cc2n[nH]c(=O)c3ccccc23)ccc1F)N1CCN(C(=O)C2CC2)CC1 [Olaparib] (first compound max 10 µM, 7x7, partner max 10 µM)	0.0244	-0.0408	0.0472	-0.0438	-0.0667	0.0137	0.0231	-0.0105	0.0084	-0.0038	0.015	0.059	-0.0005	0.0096	-0.0841	-0.0204	0.0226	0.0013	-0.0424	0.0123
Cc1cc2ncnn2cc1Nc1ncc2c(n1)n(C1CCOCC1)c(=O)n2C [AZD7648] + C=CCn1c(=O)c2cnc(Nc3ccc(N4CCN(C)CC4)cc3)nc2n1-c1cccc(C(C)(C)O)n1 [AZD1775] (first compound max 10 µM, partner max 1 µM)	0.019	0.0057	-0.0563	-0.0188	-0.0069	-0.0108	-0.0502	-0.0476	-0.0364	-0.0219	-0.0055	-0.0714	-0.0257	0.0039	-0.0342	-0.0359	0.0125	0.0119	-0.0011	-0.0404
Cc1cc2ncnn2cc1Nc1ncc2c(n1)n(C1CCOCC1)c(=O)n2C [AZD7648] + CCN(CCO)CCCOc1ccc2c(Nc3cc(CC(=O)Nc4cccc(F)c4)[nH]n3)ncnc2c1 [AZD2811] (first compound max 10 µM, 7x7, partner max 1 µM)	0.0523	-0.0041	0.0056	0.0123	0.0001	0.0156	-0.0052	0.0568	-0.0036	0.0241	-0.0306	-0.0526	-0.0408	-0.0028	-0.0576	0.0312	0.0106	0.0274	-0.0367	0.0265
